Among the data in the NIST ThermoML archive (doi:10.1021/je100757w) are surface tension liquid-gas and mass density values, retold here.

One may read the surface tension liquid-gas as the force per length acting along the surface. Broadly, the mass density is mass per unit of volume.

± gives the expanded uncertainty stated by the source.

The conditions of series [1]: for surface tension liquid-gas: Ring tensiometer; for mass density: 101.3 kPa, Liquid.
A short description of series [2]: xn = mol fraction of the nth substance listed. As to conditions: x2 = 0; for surface tension liquid-gas: Ring tensiometer; for mass density: 101.3 kPa, Liquid.

Consider `COCCOCCOCCOCCOC` [2,5,8,11,14-pentaoxapentadecane], for which the surface tension liquid-gas in series [1] (298.15 K) was found to be 33.74 ± 0.69 mN/m; in series [1] (308.15 K), 32.45 ± 0.67 mN/m; in series [1] (318.15 K), 31.71 ± 0.65 mN/m. The results for the mass density in series [1] (298.15 K), in series [1] (308.15 K) and in series [1] (318.15 K) were 1007.26 ± 2.1 kg/m3, 997.98 ± 2.1 kg/m3 and 988.72 ± 2.1 kg/m3, respectively.
As for `COCCOCCOCCOC` [2,5,8,11-tetraoxadodecane], the surface tension liquid-gas came to 27.56 ± 0.48 mN/m in series [1] (298.15 K), 28.48 ± 0.5 mN/m in series [1] (308.15 K) and 27.83 ± 0.49 mN/m in series [1] (318.15 K). Besides, the mass density in series [1] (298.15 K) was 981.23 ± 1.1 kg/m3; in series [1] (308.15 K), 971.71 ± 1.1 kg/m3; in series [1] (318.15 K) it was 962.19 ± 1.1 kg/m3.
For `COCCOCCOC` [2,5,8-trioxanonane], the surface tension liquid-gas in series [1] (298.15 K) amounted to 24.56 ± 0.41 mN/m; in series [1] (308.15 K), 27.65 ± 0.45 mN/m; in series [1] (318.15 K), 23.44 ± 0.4 mN/m. The values for the mass density in series [1] (298.15 K), in series [1] (308.15 K) and in series [1] (318.15 K) were 940.01 ± 0.83 kg/m3, 930.03 ± 0.86 kg/m3 and 919.99 ± 0.88 kg/m3, respectively.
On to `O` [water] + COCCOCCOC, for which the figures for the surface tension liquid-gas in series [2] (298.15 K), in series [2] (308.15 K) and in series [2] (318.15 K) were 71.37 ± 1 mN/m, 70.08 ± 1 mN/m and 69.11 ± 1 mN/m, respectively. Moreover, the mass density in series [2] (308.15 K) is listed as 994.06 ± 0.27 kg/m3.
Taken in the same sequence, the figures for `O` [water] + COCCOCCOCCOC were 71.37 ± 1 mN/m, 70.08 ± 1 mN/m, 69.11 ± 1 mN/m and 994.06 ± 0.27 kg/m3.
Consider `O` [water] + COCCOCCOCCOCCOC, for which the surface tension liquid-gas is reported as 71.37 ± 1 mN/m in series [2] (298.15 K), 70.08 ± 1 mN/m in series [2] (308.15 K) and 69.11 ± 1 mN/m in series [2] (318.15 K). Besides, the mass density in series [2] (308.15 K) is given as 994.06 ± 0.27 kg/m3.
